The values below come from patent publication US10213415B2, “Compounds as opioid receptor modulators” (JANSSEN PHARMACEUTICA NV, priority 2004, dated 2019).

For assay [1], the target named is T1, mu opioid receptor (Rattus norvegicus, UniProt P33535).
T1 construct: from tissue; host or cells: forebrain of male Wistar rats
As to the kind of experiment: Rat Brain Mu Opioid Receptor Binding Assay (and Version 2a, [3H]DAMGO). Particulars: rat forebrain membranes, margin of error 10-20%, read-out: r Ki μ. Summed up: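 Displacement of the mu-selective radioligand [3H]DAMGO (0.8 nM) measured by filtration and scintillation counting after 2.5 h at 25° C. Membranes came from male Wistar rat forebrain in Tris-HCl (50 mM, pH 7.4) plus 5 mM MgCl2; Ki derived from concentration–response, % inhibition for single doses.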

The target in assay [2] is T2, delta opioid receptor (Rattus norvegicus, UniProt P33533).
T2 construct: from tissue; host or cells: forebrain of male Wistar rats
The assay is described as follows: Rat Brain Delta Opioid Receptor Binding Assay ([3H]DPDPE). Particulars: rat forebrain membranes, margin of error 10-20%, read-out: r Ki δ. A digest of the protocol: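 Rat (male Wistar) forebrain membranes in 50 mM Tris-HCl pH 7.4 with 5 mM MgCl2, incubated with ~4 nM [3H]DPDPE for 2.5 h at 25 °C. Bound ligand collected by filtration and scintillation counting. Single-concentration data given as % inhibition of specific binding; concentration series fitted to Ki.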

Assay [3] deals with T3, mu opioid receptor (CHO-hMOR cell membranes) (Homo sapiens, UniProt P35372).
T3 construct: purchased Receptor Biology, Inc. (Baltimore, Md.); host or cells: CHO cells (recombinant expression)
The assay is described as follows: Mu Opioid Receptor Functional Assay: [35S]GTPγS Binding in CHO-hMOR Cell Membranes, Versions 1 and 2. Particulars: for MOR GTP binding assay_v1 (% I): version 1, % inhibition of agonist-stimulated GTPγS binding; for MOR GTP assay_v1 % of Basal: version 1, basal binding = 100%. In kind it is biochemical. A digest of the protocol:
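Agonist-stimulated [35S]GTPγS (0.5 nM) binding measured by SPA in human MOR CHO membranes, buffer pH 7.6 with 100 mM NaCl, 5 mM MgCl2. Antagonist mode: % inhibition of stimulation by 1 μM SNC80; agonist mode: EC50 fitted. Basal binding without agonist, non-specific with 10 μM cold GTPγS.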
(Binding of GTPγS marks nucleotide exchange on a G protein.)

The target of assay [4] is T4, delta opioid receptor (CHO-hδ cell membranes) (Homo sapiens, UniProt P41143).
T4 construct: purchased Receptor Biology, Inc. (Baltimore, Md.); host or cells: CHO cells (recombinant expression)
As to the kind of experiment: Delta Opioid Receptor Functional Assay: [35S]GTPγS Binding in CHO-hδ Cell Membranes, Version 1. In kind it is biochemical. Particulars: read-out: DOR GTP-binding Assay_v1 EC50. As to the method:
CHO-hδ cell membranes were purchased from Receptor Biology, Inc. (Baltimore, Md.). 10 mg/ml of membrane protein suspended in 10 mM TRIS-HC pH 7.2, 2 mM EDTA, 10% sucrose.
Membranes were maintained at 4-8° C. A portion (1 ml) of membranes was added into 15 mL cold binding assay buffer. The assay buffer contained 50 mM HEPES, pH 7.6, 5 mM MgCl2, 100 mM NaCl, 1 mM DTT and 1 mM EDTA. The membrane suspension was homogenized with a Polytron for 2 times and centrifuged at 3000 rpm for 10 min. The supernent was then centrifuged at 18,000 rpm for 20 min. The pellet was saved in a tube and 10 ml assay buffer was added into the tube. The pellet and buffer were mixed with a Polytron.
The pellet membranes (20 μg/ml) were preincubated with SPA (10 mg/ml) at 25° C. for 45 min in the assay buffer. The SPA (5 mg/ml) coupled with membranes (10 μg/ml) was then incubated with 0.5 nM [^35S]GTPγS in the same HEPES buffer containing 50 μM GDP in total volume of 200 μl. Increasing concentrations of receptor agonists were used to stimulate [^35S]GTPγS binding. The basal binding was tested in the absent agonists and no specific binding was tested in the present 10 μM unlabeled GTPγS. The data were analyzed on a Top counter.
Data The % of Basal=(stimulate−non specific)*100/(basal−non specific). EC50 values were calculated using a Prism program.

Assay [5] concerns male CD-1 mice. As to the kind of experiment: In Vivo Assay: Upper GI Tract Transit (MUGIT). Particulars: Mus musculus, po, 1 h, dose 30 (mg), p.o., read-out: upper GI transit (% ctrl). On the procedure:
Methods: The animals used in these studies were male CD-1 mice, ave. wt. ˜30 g. Mice were housed under 12 h/12 h light/dark cycle, food & water ad lib. On the day of the experiment mice were assigned to experimental groups, including one vehicle-only group (=control). At 30 min before administration of carmine dye, animals were dosed with vehicle or vehicle-plus-compound, mice were returned to their home cages after drug administration. After administration of carmine, the animals were either returned to their home cages (non-stressed) or individually placed in the same metal cages as used in the fecal output or entire GI tract transit to induce a novel environment stress. One hour after administration of carmine, mice were sacrificed by cervical dislocation, the abdomen opened midventrally, the small intestine from pylorus to cecum was removed, the mesentery divided in order to lay the intestine straight & flat—without stretching. The total length of intestine and the length of carmine-dyed intestine were measured in order to determine the percent of the upper GI tract over which transit had occurred as follows: {(Length of carmine-dyed intestine)/(Total length of intestine)}×100=% upper GI transit. The data expressed were group means±SD (or s.e.m.) and data expressed as % of control.

For assay [6], the target named is T5, delta opioid receptor (NG108-15 cell membranes) (Mus musculus, UniProt P32300).
T5 construct: NG108-15 cell membranes were purchased from Applied Cell Sciences (Rockville, Md.); host or cells: NG108-15 cells (membranes purchased)
As to the kind of experiment: Delta Opioid Receptor Functional Assay: [35S]GTPγS Binding in NG108-15 Cell Membranes, Version 2. It is filed as biochemical. Particulars: NG108-15 cell membranes, version 2. As to the method:
NG108-15 cell membranes were purchased from Applied Cell Sciences (Rockville, Md.). 8 mg/ml of membrane protein suspended in 10 mM TRIS-HC pH 7.2, 2 mM EDTA, 10% sucrose.
Membranes were maintained at 4-8° C. A portion (1 ml) of membranes was added into 10 ml cold binding assay buffer. The assay buffer contained 50 mM Tris, pH 7.6, 5 mM MgCl2, 100 mM NaCl, 1 mM DTT and 1 mM EGTA. The membrane suspension was homogenized with a Polytron for 2 times and centrifuged at 3000 rpm for 10 min. The supernent was then centrifuged at 18,000 rpm for 20 min. The pellet was saved in a tube and 10 ml assay buffer was added into the tube. The pellet and buffer were mixed with a Polytron.
The pellet membranes (75 μg/ml) were preincubated with SPA (10 mg/ml) at 25° C. for 45 min in the assay buffer. The SPA (5 mg/ml) coupled with membranes (37.5 μg/ml) was then incubated with 0.1 nM [^35S] GTPγS in the same Tris buffer containing 100 μM GDP in total volume of 200 μl. Increasing concentrations of receptor agonists were used to stimulate [^35S] GTPγS binding. The basal binding was tested in the absent agonists and no specific binding was tested in the present 10 μM unlabeled GTPγS. The data were analyzed on a Top counter.
[formula] % Inhibition=(% stimulation by 1 μM SNC80−% stimulation by 1 μM SNC80 in presence of test compound)×100/(% Stimulation by 1 μM SNC80−100) % of Basal=(stimulate−non specific)*100/(basal−non specific). EC50 values were calculated using GraphPad Prism.

Assay [7] has as its target T6, human delta subtype 2 opioid receptor (Homo sapiens, UniProt P41143).
T6 construct: purchased Perkin Elmer RBHODM400UA; host or cells: Chinese Hamster Ovary cells (recombinant expression)
As to the kind of experiment: Human Delta Opioid Receptor Binding Assay (CHO membranes, 3H-Naltrindole). Particulars: read-out: hKi δ. A digest of the protocol:
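Compound displacement of tritiated naltrindole (6 nM working dilution) measured by scintillation counting after GF/C filtration. Receptor source: recombinant CHO membranes; buffer 50 mM Tris, 5 mM MgCl2, pH 7.5; 30 min room-temperature incubation. 1 μM cold naltrindole sets nonspecific binding.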

Assay [8] has as its target T7, human mu opioid receptor (Homo sapiens, UniProt P35372).
T7 construct: purchased Perkin Elmer RBHOMM400UA; host or cells: Chinese Hamster Ovary cells (recombinant expression)
As to the kind of experiment: Human Mu Opioid Receptor Binding Assay (CHO membranes, 3H-Damgo). Particulars: read-out: hKi μ. A digest of the protocol: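 Radioligand displacement of ³H-Damgo (diluted to 3.6 nM pre-mix) from recombinant human mu receptor in CHO membranes, 2 h, room temperature, 50 mM Tris pH 7.5 with 5 mM MgCl2. Bound label read by filtration and scintillation counting; 1 μM unlabelled Damgo defines nonspecific binding.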

SMILES strings stand for the structures. pEC50, pKi: −log10 of the molar value.

T7 sequence (P35372 whole entry): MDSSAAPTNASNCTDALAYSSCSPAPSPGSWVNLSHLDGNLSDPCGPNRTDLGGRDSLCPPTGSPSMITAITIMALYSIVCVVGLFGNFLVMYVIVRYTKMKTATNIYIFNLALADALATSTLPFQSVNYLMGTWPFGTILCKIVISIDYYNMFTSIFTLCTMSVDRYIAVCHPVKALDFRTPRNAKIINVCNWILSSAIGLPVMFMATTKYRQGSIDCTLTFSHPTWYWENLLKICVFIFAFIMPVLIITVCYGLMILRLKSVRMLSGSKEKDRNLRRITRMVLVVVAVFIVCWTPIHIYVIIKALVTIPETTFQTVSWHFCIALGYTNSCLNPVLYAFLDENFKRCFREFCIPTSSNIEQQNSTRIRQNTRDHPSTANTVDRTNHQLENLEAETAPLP
T3 sequence (P35372 whole entry): as above
T1 sequence (P33535 whole entry): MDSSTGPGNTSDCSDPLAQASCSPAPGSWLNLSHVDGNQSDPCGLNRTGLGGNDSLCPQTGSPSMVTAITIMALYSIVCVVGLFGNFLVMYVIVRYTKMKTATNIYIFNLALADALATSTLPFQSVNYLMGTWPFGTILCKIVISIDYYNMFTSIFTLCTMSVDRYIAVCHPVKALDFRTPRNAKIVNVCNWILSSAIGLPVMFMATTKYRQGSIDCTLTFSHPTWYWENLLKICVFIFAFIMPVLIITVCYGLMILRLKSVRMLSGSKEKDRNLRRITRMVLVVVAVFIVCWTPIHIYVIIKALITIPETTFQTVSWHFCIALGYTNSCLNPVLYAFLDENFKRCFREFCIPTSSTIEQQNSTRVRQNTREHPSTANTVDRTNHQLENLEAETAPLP
T2 sequence (P33533 whole entry): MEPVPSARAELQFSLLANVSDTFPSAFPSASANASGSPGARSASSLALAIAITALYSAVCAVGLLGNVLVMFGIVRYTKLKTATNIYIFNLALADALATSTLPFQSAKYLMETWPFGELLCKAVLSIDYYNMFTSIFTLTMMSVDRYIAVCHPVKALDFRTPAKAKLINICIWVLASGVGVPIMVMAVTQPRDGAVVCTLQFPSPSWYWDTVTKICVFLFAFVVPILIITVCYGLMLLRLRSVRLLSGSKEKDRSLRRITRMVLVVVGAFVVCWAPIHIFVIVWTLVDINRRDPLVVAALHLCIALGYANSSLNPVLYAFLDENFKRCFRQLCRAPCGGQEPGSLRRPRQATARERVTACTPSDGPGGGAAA
T4 sequence (P41143 whole entry): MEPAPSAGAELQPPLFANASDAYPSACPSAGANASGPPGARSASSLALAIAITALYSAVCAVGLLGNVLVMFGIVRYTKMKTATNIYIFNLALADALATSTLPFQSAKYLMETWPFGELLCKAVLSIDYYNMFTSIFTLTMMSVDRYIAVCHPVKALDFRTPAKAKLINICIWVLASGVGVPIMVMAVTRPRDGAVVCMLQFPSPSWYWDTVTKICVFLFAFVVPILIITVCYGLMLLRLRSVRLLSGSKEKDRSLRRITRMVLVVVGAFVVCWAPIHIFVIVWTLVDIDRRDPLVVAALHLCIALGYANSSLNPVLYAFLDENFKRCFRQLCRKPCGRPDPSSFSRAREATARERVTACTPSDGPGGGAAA
T6 sequence (P41143 whole entry): as above
T5 sequence (P32300 whole entry): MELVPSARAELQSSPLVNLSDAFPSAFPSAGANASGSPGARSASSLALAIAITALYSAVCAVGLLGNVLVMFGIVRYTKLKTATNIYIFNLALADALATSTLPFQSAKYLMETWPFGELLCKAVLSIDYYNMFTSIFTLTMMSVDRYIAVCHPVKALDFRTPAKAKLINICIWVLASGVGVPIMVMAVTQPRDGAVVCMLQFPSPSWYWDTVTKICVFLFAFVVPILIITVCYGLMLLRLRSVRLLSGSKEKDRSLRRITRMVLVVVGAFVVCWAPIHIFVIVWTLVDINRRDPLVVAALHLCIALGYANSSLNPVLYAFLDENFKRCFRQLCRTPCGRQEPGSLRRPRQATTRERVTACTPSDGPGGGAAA

The pEC50 is the EC50 on a negative log10 scale, so that one unit is a factor of ten. As for `C[C@@H](c1nc(-c2ccccc2)c[nH]1)N(C)C(=O)[C@@H](N)Cc1ccc(C(N)=O)cc1` [Cpd 202], in assay [1], the pKi is 8.23. In addition, the pKi in assay [2] is 7.50. Also, in assay [3], the “MOR GTP binding assay_v1 (% I)” value came to 1.00% and the “MOR GTP assay_v1 % of Basal” value was 529.00%. Further, the pEC50 in assay [4] is 5.80.

For `Cc1cc(O)cc(C)c1C[C@H](N)C(=O)N(Cc1ccc(C(=O)O)o1)[C@@H](C)c1nc(-c2ccccc2)c[nH]1` [Cpd 287], the pKi in assay [1] is 9.89; in assay [2] it was 9.85. For the same compound, in assay [5], the response vs control in vivo at 30 mg is 66.4%. Moreover, in assay [6] ([35S]GTPγS, read-out: DOR GTP-binding Assay_v2_ EC50), the pEC50 is < 5.00. Further, in assay [6] (% inhibition of agonist-stimulated GTPγS binding), the “DOR GTP-binding Assay v2 (% I)” value was found to be 84.50%.

Take `Cc1cc(O)cc(C)c1C[C@H](N)C(=O)N(Cc1nc(-c2ccc(C(F)(F)F)cc2)c(C)[nH]1)C(C)C` [Cpd 149]: in assay [3], the “MOR GTP binding assay_v1 (% I)” value is recorded as 1.00% and the “MOR GTP assay_v1 % of Basal” value amounted to 753.53%. The pKi in assay [7] was 6.39. In addition, in assay [4], the pEC50 was 7.36.

In the case of `Cc1cc(O)cc(C)c1C[C@H](N)C(=O)N(Cc1nc(-c2cccc(CO)c2)c(C)[nH]1)C(C)C` [Cpd 130], the results for the pKi in assay [8] and in assay [7] were 8.80 and 6.15, respectively. Moreover, the “MOR GTP binding assay_v1 (% I)” value in assay [3] was 1.62%. For the same compound, the “MOR GTP assay_v1 % of Basal” value in assay [3] is listed as 866.39%. The pEC50 in assay [4] was 7.80.

For `Cc1cc(O)cc(C)c1C[C@H](N)C(=O)N(Cc1nc(-c2ccccc2Cl)c(C)[nH]1)C(C)C` [Cpd 155], in assay [3], the “MOR GTP binding assay_v1 (% I)” value amounted to 14.32% and the “MOR GTP assay_v1 % of Basal” value stood at 655.93%. Further, the pKi in assay [7] is 6.46. Besides, the pEC50 in assay [4] is 6.82.

With `Cc1cc(O)cc(C)c1C[C@H](N)C(=O)N(Cc1nc(-c2cncnc2)c(C)[nH]1)C(C)C` [Cpd 131], in assay [8], the pKi was 8.51. In addition, in assay [3], the “MOR GTP binding assay_v1 (% I)” value is on record as 28.64% and the “MOR GTP assay_v1 % of Basal” value came to 391.98%. For the same compound, in assay [7], the pKi was 6.17. The pEC50 in assay [4] was 7.00.

In the case of `Cc1cc(O)cc(C)c1C[C@H](N)C(=O)N(Cc1nc(-c2ccccc2C(F)(F)F)c(C)[nH]1)C(C)C` [Cpd 151], in assay [3], the “MOR GTP binding assay_v1 (% I)” value was 24.19% and the “MOR GTP assay_v1 % of Basal” value is on record as 606.38%. Further, the pKi in assay [7] was 5.89. Further, the pEC50 in assay [4] is 6.46.

On to `CCN(C(=O)[C@@H](N)Cc1c(C)cc(C(N)=O)cc1C)[C@@H](C)c1nc(-c2ccccc2)c[nH]1` [Cpd 197], for which the pKi in assay [1] was 9.05. For the same compound, the pKi in assay [2] was 8.37. Also, in assay [3], the “MOR GTP binding assay_v1 (% I)” value is 1.00% and the “MOR GTP assay_v1 % of Basal” value is listed as 582.00%. The pEC50 in assay [4] is 6.85.

With `CCN(C(=O)[C@@H](N)Cc1c(C)cc(O)cc1C)[C@H](c1nc(-c2ccccc2)c[nH]1)C(C)C` [Cpd 170], the pKi is 9.32 in assay [1] and 7.49 in assay [2]. The “MOR GTP binding assay_v1 (% I)” value in assay [3] is recorded as 26.00%. Also, the pEC50 in assay [4] is 6.94.

In the case of `Cc1cc(O)cc(C)c1C[C@H](N)C(=O)N(Cc1nc(-c2ccsc2)c(C)[nH]1)C(C)C` [Cpd 146], in assay [3], the “MOR GTP binding assay_v1 (% I)” value is given as 2.79% and the “MOR GTP assay_v1 % of Basal” value was 740.77%. The pKi in assay [7] was 7.15. The pEC50 in assay [4] is 7.57.

Consider `Cc1cc(O)cc(C)c1C[C@H](N)C(=O)N(Cc1nc(-c2ccccc2F)c(C)[nH]1)C(C)C` [Cpd 117], for which the pKi is 9.62 in assay [8] and 6.93 in assay [7]. Further, in assay [3], the “MOR GTP binding assay_v1 (% I)” value was determined as 3.31%. Also, the “MOR GTP assay_v1 % of Basal” value in assay [3] turned out to be 816.16%. Besides, the pEC50 in assay [4] was 7.43.

Take `Cc1cc(O)cc(C)c1C[C@H](N)C(=O)N(Cc1nc(-c2ccc(Cl)cc2)c(C)[nH]1)C(C)C` [Cpd 147]: in assay [3], the “MOR GTP binding assay_v1 (% I)” value amounted to 1.00% and the “MOR GTP assay_v1 % of Basal” value was 779.35%. In addition, in assay [7], the pKi is 6.62. Further, in assay [4], the pEC50 is 7.29.
